Measurements: patent US20060276464A1, “Diarylsulfone sulfonamides and use thereof” (Wyeth, priority 2005, published 2006)
Read-outs that look alike come from different tables or passages of the source.

Molecular target: T1, SFRP-1 (Homo sapiens, UniProt Q8N474)
T1 sequence (Q8N474 32-314): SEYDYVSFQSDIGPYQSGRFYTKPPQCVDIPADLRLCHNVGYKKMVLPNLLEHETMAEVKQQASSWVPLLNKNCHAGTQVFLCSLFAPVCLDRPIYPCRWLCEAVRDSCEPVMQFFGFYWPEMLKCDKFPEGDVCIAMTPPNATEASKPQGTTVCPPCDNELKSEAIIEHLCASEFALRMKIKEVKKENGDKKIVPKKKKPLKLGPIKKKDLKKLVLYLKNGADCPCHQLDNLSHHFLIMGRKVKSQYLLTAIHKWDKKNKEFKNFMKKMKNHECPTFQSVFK
Experiment: Cell-based assay for in vitro measurement of SFRP-1/SARP2 antagonist activity (U2OS cells co-transfected with 16x TCF-tk-Luciferase reporter, Wnt and hSFRP-1);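 further: U2OS cells co-transfected with a TCF-tk luciferase reporter, a Wnt vector, hSFRP-1 or empty vector and CMV-βgal, luciferase luminescence read in cell lysates alongside βgal activity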
Settings: U2OS

[1] = read-out: Fold Induction with SFRP-1, Conc 15 μM, with SFRP-1, fold induction over SFRP-1 control, single dose
[2] = read-out: Fold Induction without SFRP-1, Conc 15 μM, without SFRP-1, single dose

Row | SMILES | fold induction at 15 µM [1] | fold induction at 15 µM [2]
1 | COc1ccccc1S(=O)(=O)c1ccc(C)c(S(=O)(=O)NCCCn2ccnc2)c1 [Example 316, N-[3-(1H-imidazol-1-yl)propyl]-5-[(2-methoxyphenyl)sulfonyl]-2-methylbenzenesulfonamide] | 2.5 | 1.1
2 | Cc1ccc(S(=O)(=O)NCCCn2ccnc2)cc1S(=O)(=O)c1ccccc1 [Example 317, N-[3-(1H-imidazol-1-yl)propyl]-4-methyl-3-(phenylsulfonyl)benzenesulfonamide] | 1.2 | 1.1
3 | COc1cccc(S(=O)(=O)c2ccc(C)c(S(=O)(=O)NCCCn3ccnc3)c2)c1 [Example 323, N-[3-(1H-imidazol-1-yl)propyl]-5-[(3-methoxyphenyl)sulfonyl]-2-methylbenzenesulfonamide] | 2.6 | 0.9
4 | Cc1cc(C)c(S(=O)(=O)c2ccccc2)cc1S(=O)(=O)NC1CCOCC1 [Example 327, 2,4-dimethyl-5-(phenylsulfonyl)-N-tetrahydro-2H-pyran-4-ylbenzenesulfonamide] | 2.7 | 1
5 | Cc1cc(C)c(S(=O)(=O)c2ccc(F)cc2)cc1S(=O)(=O)NC1CCOCC1 [Example 332, 5-[(4-fluorophenyl)sulfonyl]-2,4-dimethyl-N-(tetrahydro-2H-pyran-4-yl)benzenesulfonamide] | 3 | 1
6 | O=S(=O)(NCCc1ccccc1)c1cc(S(=O)(=O)c2ccccc2)ccc1Cl [Example 334, 2-chloro-N-(2-phenylethyl)-5-(phenylsulfonyl)benzenesulfonamide] | 1.5 | 1.2
7 | O=S(=O)(NCCN1CCOCC1)c1cc(S(=O)(=O)c2ccccc2)ccc1Cl [Example 335, 2-chloro-N-(2-morpholin-4-ylethyl)-5-(phenylsulfonyl)benzenesulfonamide] | 2.2 | 1
8 | O=S(=O)(NCCCn1ccnc1)c1cc(S(=O)(=O)c2ccccc2)ccc1Cl [Example 336, 2-chloro-N-[3-(1H-imidazol-1-yl)propyl]-5-(phenylsulfonyl)benzenesulfonamide] | 2.8 | 1
9 | O=S(=O)(NCCc1ccccn1)c1cc(S(=O)(=O)c2ccccc2)ccc1Cl [Example 337, 2-chloro-5-(phenylsulfonyl)-N-(2-pyridin-2-ylethyl)benzenesulfonamide] | 2.6 | 1.1

Continued, values first:

Row | fold induction at 15 µM [1] | fold induction at 15 µM [2] | SMILES
10 | 3 | 1.1 | Cc1cc(C)c(S(=O)(=O)c2ccccc2)cc1S(=O)(=O)NCCCn1ccnc1 [Example 325, N-[3-(1H-imidazol-1-yl)propyl]-2,4-dimethyl-5-(phenylsulfonyl)benzenesulfonamide]
11 | 2.4 | 1 | Cc1cc(C)c(S(=O)(=O)c2ccccc2)cc1S(=O)(=O)NCCc1ccccn1 [Example 326, 2,4-dimethyl-5-(phenylsulfonyl)-N-(2-pyridin-2-ylethyl)benzenesulfonamide]
12 | 3.2 | 1.1 | Cc1cc(C)c(S(=O)(=O)c2ccc(F)cc2)cc1S(=O)(=O)NCCCn1ccnc1 [Example 330, 5-[(4-fluorophenyl)sulfonyl]-N-[3-(1H-imidazol-1-yl)propyl]-2,4-dimethylbenzenesulfonamide]
13 | 2.3 | 1.1 | Cc1cc(C)c(S(=O)(=O)c2ccc(F)cc2)cc1S(=O)(=O)NCCc1ccccn1 [Example 331, 5-[(4-fluorophenyl)sulfonyl]-2,4-dimethyl-N-(2-pyridin-2-ylethyl)benzenesulfonamide]
14 | 1.7 | 1 | Cc1cc(C)c(S(=O)(=O)c2ccc(F)cc2)cc1S(=O)(=O)NCCC1CCOCC1 [Example 333, 5-[(4-fluorophenyl)sulfonyl]-2,4-dimethyl-N-[2-(tetrahydro-2H-pyran-4-yl)ethyl]benzenesulfonamide]
